Laboratory results reported in ChEMBL document CHEMBL1121823, “A novel connector linkage applicable in prodrug design” (J Med Chem, 1981).

Key:
Assay type in all cases: ADME
[1] = Half-life was determined; conditions: human
[2] = Half-life in aqueous buffer (0.05 M bistris, pH 6.9) in the absence of trypsin was determined at 25 degree C; conditions: aqueous buffer without trypsin
[3] = Half-life in aqueous buffer (0.05 M bistris, pH 6.9) in the presence of trypsin (2.5 ug/ml) was determined at 25 degree C

Q: Which half-life [1] does the source give for `NC(=O)OCc1ccc(N)cc1` here?
A: 1.5 min

Q: Which half-life [2] does the source give for `CC(C)(C)OC(=O)NC(CCCCN)C(=O)Nc1ccc(COC(=O)Nc2ccc([N+](=O)[O-])cc2)cc1` (stereo not drawn) here?
A: 40 h

Q: And the half-life [3]?
A: 11 min
